Laboratory results taken from patent publication US20110104159A1, “COMPOSITIONS AND METHODS FOR TREATING, CONTROLLING, REDUCING, AMELIORATING, OR PREVENTING ALLERGY” (priority 2006, published 2011).

System: eosinophil peroxidase
Experiment: Eosinophil peroxidase assay in guinea pig conjunctiva
Format: in vivo
Settings: 0.4% eye drops; 24 h after antigen challenge
Procedure: Male Dunkin-Hartley guinea pigs were actively immunized by i.p. injection of 200 μg OVA in 2 ml saline with 40 mg aluminum hydroxide (positive control) or saline alone (negative control), as previously reported. […] Negative controls received saline alone.
Conjunctival clinical symptoms were rated blind on both eyes using the following scale: 0, no symptoms; 1, slight conjunctival redness with or without tears; 2, mild conjunctival redness with tears and mild chemosis; 3, mild conjunctival redness with tears and moderate chemosis; 4, severe conjunctival redness with tears and partial lid eversion; 5, severe conjunctival redness with tears and lids more than half closed. […] The number of eosinophils in each field was counted under light microscopy (×500 magnification). In the other sample eosinophil peroxidase activity was measured.
Eosinophil peroxidase was assayed as previously reported in conjunctival samples obtained as above described. […] Absorbance was measured using a spectrophotometer (JASCO V-530, Jasco, UK) at 490 nm. […] Eosinophil peroxidase activity was measured according to the method of Strath et al., which is based on the oxidation of o-phenylenediamine by eosinophil peroxidase in the presence of hydrogen peroxide. One unit corresponds to 1 mmol of hydrogen peroxide decomposed for […], and the results were expressed as eosinophil peroxidase levels (mU of enzyme/mg wet tissue).

Cc1ccc2c(NC[C@](O)(CC(C)(C)c3cc(F)cc4c3OCC4)C(F)(F)F)cccc2n1 [BOL-303242-X, (R)-1,1,1-Trifluoro-4-(5-fluoro-2,3-dihydrobenzofuran-7-yl)-4-methyl-2-{[(2-methyl-5-quinolyl)amino]methyl}pentan-2-ol]
Conjunctival eosinophil peroxidase activity: noteworthy reduction
